Here are results for eleven molecules from US20180273528A1 (LES LABORATOIRES SERVIER, priority 2015, published 2018).

By IC50 is commonly meant the concentration that inhibits the measured activity by half.

Each structure is given as a SMILES string. A value given as a limit tells only on which side of the number the result lay.

Holding throughout (type): biochemical
One assay addresses T1, DYRK1B (Homo sapiens, UniProt Q9Y463).
T1 construct: full-length human kinases from Carna Biosciences; purchased Carna Biosciences 04-131
Description: Kinase TR-FRET assay, DYRK1B. To be noted: full-length human kinase, 10 μM ATP. As to the method: Inhibition of the enzymatic activity of human kinases was evaluated in a Time-Resolved Fluorescence Resonance Energy Transfer (TR-FRET) assay in 384-well reaction plates. […] Test compounds of the invention were added in reaction buffer at a range of concentrations from 0.1 nM to 30 μM. Following addition of EDTA (Sigma E7889, 10 mM) to stop the reaction, Europium-labelled mouse monoclonal antibody recognizing phospho-Thr232 in MBP (Perkin Elmer TRF0201, 1 nM) was added.
A general note: TR-FRET usually uses a lanthanide donor and a delayed reading to cut background.

For a further assay, the target named is T2, CDK9 (Homo sapiens, UniProt P50750).
T2 construct: full-length human kinases from Carna Biosciences; purchased Carna Biosciences 04-110
Kind of assay: Kinase TR-FRET assay, CDK9. To be noted: full-length human kinase, 10 μM ATP. The method, then:
Inhibition of the enzymatic activity of human kinases was evaluated in a Time-Resolved Fluorescence Resonance Energy Transfer (TR-FRET) assay in 384-well reaction plates. In this assay, full-length human kinases from Carna Biosciences—DYRK1A (NM_001396, ref. 04-130; 2.0 ng/μl), DYRK1B (NM_004714, ref. 04-131; 1.2 ng/p), CLK1 (NM_001162407, ref. 04-126; 0.7 ng/μl), CDK9 (NM_001261, ref. 04-110; 0.9 ng/μl), or GSK3β (NM_001146156, ref. 04-141; 2.0 ng/μl—were incubated for 40 minutes (DYRK1A and DYRK1B) or 100 minutes (CLK1, CDK9 and GSK3β) at room temperature with ATP (Sigma A2383, 10 μM) and a ULight™-labelled human Myelin Basic Protein (MBP) peptide substrate (Perkin Elmer TRF0109, 100 nM) in a reaction buffer composed of 50 mM HEPES pH7.4, 1 mM EGTA, 10 mM MgCl2, 2 mM DTT and 0.01% Tween20. Test compounds of the invention were added in reaction buffer at a range of concentrations from 0.1 nM to 30 μM. Following addition of EDTA (Sigma E7889, 10 mM) to stop the reaction, Europium-labelled mouse monoclonal antibody recognizing phospho-Thr232 in MBP (Perkin Elmer TRF0201, 1 nM) was added. After one hour, the reaction plates were read using a fluorescence reader (EnVision®, Perkin Elmer) at 620 nm and 665 nm (excitation at 340 nm); when the Europium donor fluorophore is excited by light at 340 nm, an energy transfer (620 nm) to the acceptor occurs, which will then emit light at 665 nm.

Another assay concerns the target DYRK1A (Homo sapiens, UniProt Q13627). Kind of assay: Kinase TR-FRET assay, DYRK1A. Details: full-length, wild-type human DYRK1A (NM_001396) with an HA tag; expressed in transfected cells; host or cells: human U2-OS osteosarcoma cells, transient transfection of a pcDNA3.1 plasmid. The settings on record: full-length human kinase, 10 μM ATP. The procedure, abridged:
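Compounds tested at 0.1 nM to 30 μM in reaction buffer; reaction stopped with 10 mM EDTA. Phosphorylated MBP detected with 1 nM Europium-labelled anti-phospho-Thr232 antibody by TR-FRET.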

For assay [1], the target named is T3, His-TEV-DYRK1A Kinase domain (aa127-485) (Homo sapiens, UniProt Q13627).
T3 construct: His-TEV-DYRK1A Kinase domain (aa127-485); His tag (N); TEV protease cleavage site (N)
Kind of assay: Kinase ADP assay (ADP Hunter), DYRK1A kinase domain. To be noted: 20 μM ATP. The procedure, abridged: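 Compounds incubated 10 min at 30 °C with 20 nM enzyme, 40 μM peptide substrate and 20 μM ATP in pH 7.4 Hepes buffer with 10 mM MgCl2. ADP formed detected by ADP Hunter Plus reagents after 20 min at 30 °C, fluorescence read at 590 nm.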

T2 sequence (P50750 whole entry): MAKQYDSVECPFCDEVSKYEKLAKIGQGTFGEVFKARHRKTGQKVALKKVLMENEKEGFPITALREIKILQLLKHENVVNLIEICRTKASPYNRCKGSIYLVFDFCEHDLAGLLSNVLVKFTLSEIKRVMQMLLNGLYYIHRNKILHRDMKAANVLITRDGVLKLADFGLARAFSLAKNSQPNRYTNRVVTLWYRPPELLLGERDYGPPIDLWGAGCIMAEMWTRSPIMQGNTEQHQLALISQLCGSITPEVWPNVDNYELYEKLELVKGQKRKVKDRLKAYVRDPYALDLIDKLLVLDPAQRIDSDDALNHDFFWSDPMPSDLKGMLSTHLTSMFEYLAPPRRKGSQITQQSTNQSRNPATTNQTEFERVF
T2 sequence (O60563 whole entry partner): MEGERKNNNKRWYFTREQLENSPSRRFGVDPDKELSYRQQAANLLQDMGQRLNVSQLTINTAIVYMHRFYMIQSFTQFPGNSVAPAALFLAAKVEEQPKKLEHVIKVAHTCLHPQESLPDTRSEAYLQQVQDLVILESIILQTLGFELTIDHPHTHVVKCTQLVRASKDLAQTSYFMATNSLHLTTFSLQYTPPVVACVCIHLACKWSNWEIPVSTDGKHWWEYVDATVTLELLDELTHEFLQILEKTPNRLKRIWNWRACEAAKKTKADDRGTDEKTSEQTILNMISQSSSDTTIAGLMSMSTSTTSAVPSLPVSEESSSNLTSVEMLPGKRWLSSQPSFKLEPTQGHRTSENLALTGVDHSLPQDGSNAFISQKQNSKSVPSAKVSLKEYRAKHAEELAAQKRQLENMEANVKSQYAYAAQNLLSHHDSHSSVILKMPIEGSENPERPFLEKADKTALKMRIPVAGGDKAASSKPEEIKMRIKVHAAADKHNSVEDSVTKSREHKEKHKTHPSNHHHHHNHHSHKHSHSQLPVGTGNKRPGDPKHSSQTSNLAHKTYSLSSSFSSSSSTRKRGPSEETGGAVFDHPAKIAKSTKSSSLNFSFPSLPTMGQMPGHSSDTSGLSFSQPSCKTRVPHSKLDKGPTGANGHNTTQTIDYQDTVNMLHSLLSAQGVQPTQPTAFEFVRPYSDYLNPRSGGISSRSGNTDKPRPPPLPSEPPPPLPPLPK
T1 sequence (Q9Y463 whole entry): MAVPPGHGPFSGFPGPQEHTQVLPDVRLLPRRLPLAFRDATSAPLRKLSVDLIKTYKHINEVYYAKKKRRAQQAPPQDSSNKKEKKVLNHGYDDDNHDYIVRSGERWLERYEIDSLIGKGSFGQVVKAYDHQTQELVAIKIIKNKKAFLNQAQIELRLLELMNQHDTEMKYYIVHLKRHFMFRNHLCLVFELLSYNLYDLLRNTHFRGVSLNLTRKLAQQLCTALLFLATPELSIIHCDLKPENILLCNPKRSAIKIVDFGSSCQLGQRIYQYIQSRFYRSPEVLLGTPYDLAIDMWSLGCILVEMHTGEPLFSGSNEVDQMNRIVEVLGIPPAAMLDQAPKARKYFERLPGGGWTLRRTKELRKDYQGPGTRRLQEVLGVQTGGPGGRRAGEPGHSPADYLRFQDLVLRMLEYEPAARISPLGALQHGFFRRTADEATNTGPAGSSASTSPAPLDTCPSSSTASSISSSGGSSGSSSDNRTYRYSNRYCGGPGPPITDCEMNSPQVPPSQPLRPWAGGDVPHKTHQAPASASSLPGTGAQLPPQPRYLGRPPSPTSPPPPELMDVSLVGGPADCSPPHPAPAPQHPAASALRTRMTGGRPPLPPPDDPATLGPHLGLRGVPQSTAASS

As to `Cc1nc2ccc(-c3cc(N)nc(N)c3)nc2n1CC(C)(C)C` [Example 30, 4-[3-(2,2-dimethylpropyl)-2-methyl-3H-imidazo[4,5-b]pyridin-5-yl]pyridine-2,6-diamine], the IC50 came out at 0.125 µM at DYRK1B, 3.57 µM at CDK9, 0.017 µM on DYRK1A and 0.018 µM in assay [1].

Take `CCC(C)Cn1c(C)nc2ccc(-c3cc(N)nc(N)c3)nc21` (centres unmarked) [Example 34, 4-[2-methyl-3-(2-methylbutyl)-3H-imidazo[4,5-b]pyridin-5-yl]pyridine-2,6-diamine]: the IC50 is 0.015 µM against DYRK1B, 1.4 µM against CDK9, 0.03 µM against DYRK1A and 0.01 µM in assay [1].

For `Cc1nc2ccc(-c3ccnc(N)c3)nc2n1CCC1CCCCC1` [Example 237, 4-[3-(2-cyclohexylethyl)-2-methyl-3H-imidazo[4,5-b]pyridin-5-yl]pyridin-2-amine], the IC50 on DYRK1B came to 0.005 µM; on CDK9, 0.718 µM; against DYRK1A, 0.005 µM; in assay [1] it was 0.045 µM.

For the molecule `Cc1nc2ccc(-c3cc(N)nc(N)c3)nc2n1CCOc1cccc2ccccc12` [Example 27, 4-{2-methyl-3-[2-(naphthalen-1-yloxy)ethyl]-3H-imidazo[4,5-b]pyridin-5-yl}pyridine-2,6-diamine], the IC50 was 0.005 µM on DYRK1B, above 10 µM on CDK9, 0.015 µM on DYRK1A and 0.056 µM in assay [1].

For the molecule `Cc1nc2ccc(-c3cc(N)nc(N)c3)nc2n1Cc1ccccn1` [Example 6, 4-[2-methyl-3-(pyridin-2-ylmethyl)-3H-imidazo[4,5-b]pyridin-5-yl]pyridine-2,6-diamine], the IC50 against DYRK1B was determined as 0.149 µM; on CDK9 it was 1.09 µM; on DYRK1A, 0.155 µM; in assay [1], 0.493 µM.

With `CCCCn1c(C)nc2ccc(-c3cc(N)nc(NCc4ccccc4)c3)nc21` [Example 231, N-benzyl-4-(3-butyl-2-methyl-3H-imidazo[4,5-b]pyridin-5-yl)pyridine-2,6-diamine], the IC50 was 0.003 µM on DYRK1B, above 10 µM against CDK9, 0.011 µM at DYRK1A and 0.046 µM in assay [1].

Regarding `CCCCn1c(C)nc2ccc(-c3cc(N)nc(NC(=O)Cc4ccccc4)c3)nc21` [Example 235, N-[6-amino-4-(3-butyl-2-methyl-3H-imidazo[4,5-b]pyridin-5-yl)pyridin-2-yl]-2-phenylacetamide], the IC50 against DYRK1B was 0.091 µM; against CDK9, above 10 µM; against DYRK1A, 0.013 µM; in assay [1], 0.207 µM.

With `Cc1nc2ccc(-c3cc(N)nc(N)c3)nc2n1Cc1ccc(F)cc1` [Example 10, 4-[3-(4-fluorobenzyl)-2-methyl-3H-imidazo[4,5-b]pyridin-5-yl]pyridine-2,6-diamine], the IC50 at DYRK1B worked out at 0.055 µM; against CDK9, 4.58 µM; on DYRK1A, 0.032 µM; in assay [1] it was 0.079 µM.

Take `Cc1nc2ccc(-c3cc(N)nc(N)c3)nc2n1Cc1cccs1` [Example 20, 4-[2-methyl-3-(thiophen-2-ylmethyl)-3H-imidazo[4,5-b]pyridin-5-yl]pyridine-2,6-diamine]: the IC50 was 0.016 µM on DYRK1B, 2.92 µM against CDK9, 0.016 µM at DYRK1A and 0.032 µM in assay [1].

`CCC(CC)n1c(C)nc2ccc(-c3cc(N)nc(N)c3)nc21` [Example 68, 4-[2-methyl-3-(pentan-3-yl)-3H-imidazo[4,5-b]pyridin-5-yl]pyridine-2,6-diamine]: the IC50 was 0.132 µM against DYRK1B, above 10 µM on CDK9, 0.029 µM on DYRK1A and 0.193 µM in assay [1].

As for `Cc1nc2ccc(-c3cc(N)nc(N)c3)nc2n1Cc1ccccc1Cl` [Example 47, 4-[3-(2-chlorobenzyl)-2-methyl-3H-imidazo[4,5-b]pyridin-5-y]pyridine-2,6-diamine], the 50% inhibitory concentration (IC50) at DYRK1B was 0.046 µM; against CDK9, 0.728 µM; on DYRK1A, 0.003 µM; in assay [1] it was 0.025 µM.
